Active and inactive are the calls of the source. The calls are words filed in the database; no cut-off is given here. Where a SMILES comes first, the peptide text is derived from it. [ ]: non-standard residue; d: D form. Gly(N(CH2)2(3-indolyl)) = O=C(O)CNCCc1c[nH]c2ccccc12; Gly(N-CH2CH2-imidazol-4-yl) = O=C(O)CNCCc1c[nH]cn1; N(1-naphthylmethyl)Gly = O=C(O)CNCc1cccc2ccccc12; Gly(N-(CH2)3-guanidino) = N=C(N)NCCCNCC(=O)O; NhArg = N=C(N)NCCCCNCC(=O)O; Nphe = O=C(O)CNCc1ccccc1; Nlys = NCCCCNCC(=O)O
Key:
[1] = molecular target: Melanocortin receptor 3 (Mus musculus) (UniProt P33033); experiment: Percent stimulation at melanocortin 3 receptor (MC3R) of mouse HEK293 cells at a concentration of 100 uM; type: cell-based
Melanocortin receptor 4 = Melanocortin receptor 4 (Mus musculus, UniProt P56450); experiment: Agonistic activity evaluated at melanocortin 4 receptor (MC4R) of mouse HEK293 cells; type: functional, cell-based
[2] = molecular target: Melanocyte-stimulating hormone receptor (Mus musculus, UniProt Q01727); experiment: Agonistic activity evaluated at melanocortin 1 receptor (MC1R) of mouse HEK293 cells; type: functional, cell-based
Melanocortin receptor 5 = Melanocortin receptor 5 (Mus musculus, UniProt P41149); experiment: Agonistic activity evaluated at melanocortin 5 receptor (MC5R) of mouse HEK293 cells; type: functional, cell-based
[3] = molecular target: Melanocortin receptor 5 (Mus musculus) (UniProt P41149); experiment: Percent stimulation at melanocortin 5 receptor (MC5R) of mouse HEK293 cells at a concentration of 100 uM; type: cell-based
[4] = molecular target: Melanocortin receptor 4 (Mus musculus) (UniProt P56450); experiment: Percent stimulation at melanocortin 4 receptor (MC4R) of mouse HEK293 cells at a concentration of 100 uM; type: cell-based
[5] = molecular target: Melanocortin receptor 3 (Mus musculus) (UniProt P33033); experiment: Agonistic activity at melanocortin 3 receptor (MC3R) of mouse HEK293 cells at a concentration of 100 uM; NA=No activity; type: functional, cell-based
Melanocortin receptor 3 = Melanocortin receptor 3 (Mus musculus, UniProt P33033); experiment: Agonistic activity evaluated at melanocortin 3 receptor (MC3R) of mouse HEK293 cells; type: functional, cell-based
[6] = molecular target: Melanocortin receptor 4 (Mus musculus) (UniProt P56450); experiment: Agonistic activity at melanocortin 4 receptor (MC4R) of mouse HEK293 cells at a concentration of 100 uM; NA=No activity; type: functional, cell-based

Chain of Melanocyte-stimulating hormone receptor (Q01727 whole entry): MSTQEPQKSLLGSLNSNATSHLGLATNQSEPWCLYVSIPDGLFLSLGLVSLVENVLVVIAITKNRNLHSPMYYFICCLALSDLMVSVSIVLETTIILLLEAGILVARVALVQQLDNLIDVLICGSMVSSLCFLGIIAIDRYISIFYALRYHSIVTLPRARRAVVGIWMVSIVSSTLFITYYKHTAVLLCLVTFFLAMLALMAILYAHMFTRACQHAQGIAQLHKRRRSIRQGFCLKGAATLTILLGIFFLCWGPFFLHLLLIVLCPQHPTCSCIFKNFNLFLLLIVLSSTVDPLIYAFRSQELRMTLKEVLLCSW
Chain of Melanocortin receptor 4 (Mus musculus) (P56450 whole entry): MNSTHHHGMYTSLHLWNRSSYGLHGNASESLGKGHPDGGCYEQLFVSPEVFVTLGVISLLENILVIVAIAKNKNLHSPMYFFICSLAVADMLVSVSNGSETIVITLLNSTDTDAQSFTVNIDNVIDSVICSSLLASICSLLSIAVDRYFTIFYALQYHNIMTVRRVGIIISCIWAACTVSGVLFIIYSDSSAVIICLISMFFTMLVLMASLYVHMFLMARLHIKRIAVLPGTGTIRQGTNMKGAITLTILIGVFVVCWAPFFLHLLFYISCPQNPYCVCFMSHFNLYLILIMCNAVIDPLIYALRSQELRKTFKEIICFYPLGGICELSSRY
Chain of Melanocortin receptor 4 (P56450 whole entry): as above
Chain of Melanocortin receptor 3 (Mus musculus) (P33033 whole entry): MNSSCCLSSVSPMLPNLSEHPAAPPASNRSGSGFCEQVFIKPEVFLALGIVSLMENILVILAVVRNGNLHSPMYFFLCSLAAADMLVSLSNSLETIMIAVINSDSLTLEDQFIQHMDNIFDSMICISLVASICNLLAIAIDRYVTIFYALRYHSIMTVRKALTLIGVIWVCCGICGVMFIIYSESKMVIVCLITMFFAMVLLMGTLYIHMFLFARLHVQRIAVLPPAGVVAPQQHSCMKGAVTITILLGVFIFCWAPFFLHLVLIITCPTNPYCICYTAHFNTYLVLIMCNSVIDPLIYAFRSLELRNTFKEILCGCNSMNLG
Chain of Melanocortin receptor 5 (P41149 whole entry): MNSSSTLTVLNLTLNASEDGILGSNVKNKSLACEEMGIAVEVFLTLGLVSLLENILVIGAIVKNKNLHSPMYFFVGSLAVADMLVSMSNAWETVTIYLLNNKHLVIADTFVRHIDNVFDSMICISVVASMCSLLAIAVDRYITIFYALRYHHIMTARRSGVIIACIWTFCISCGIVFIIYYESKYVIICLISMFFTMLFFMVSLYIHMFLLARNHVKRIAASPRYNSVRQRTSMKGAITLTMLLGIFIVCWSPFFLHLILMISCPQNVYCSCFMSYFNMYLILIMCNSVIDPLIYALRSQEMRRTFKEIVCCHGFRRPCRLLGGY
Chain of Melanocortin receptor 3 (P33033 whole entry): as the sequence (P33033 whole entry) above
Chain of Melanocortin receptor 5 (Mus musculus) (P41149 whole entry): as the sequence (P41149 whole entry) above

Row | Stimulation [1] [%] | EC50 (Melanocortin receptor 4) [nM] | EC50 [2] [nM] | EC50 (Melanocortin receptor 5) [nM] | Stimulation [3] [%] | Stimulation [4] [%] | Stimulation [5] | EC50 (Melanocortin receptor 3) [nM] | Stimulation [6] | Structure (SMILES)
1 | 75 | 27200 | 27000 | 7380 |  |  |  |  |  | CC(=O)N(CCc1c[nH]cn1)CC(=O)N(CC(=O)N(CCCCN)CC(=O)N(CCc1c[nH]c2ccccc12)CC(N)=O)Cc1ccccc1 (Ac-[Gly(N-CH2CH2-imidazol-4-yl)][Nphe][Nlys][Gly(N(CH2)2(3-indolyl))]-NH2)
2 | 25 | 260 | 780 | 360 |  |  |  |  |  | CC(=O)N(CC(=O)N[C@@H](Cc1ccccc1)C(=O)N[C@@H](CCCN=C(N)N)C(=O)N[C@@H](Cc1c[nH]c2ccccc12)C(N)=O)Cc1ccccc1 (Ac-[Nphe]FRW-NH2)
3 | 70 | 640 | 500 | 56 |  |  |  |  |  | CC(=O)N[C@@H](Cc1c[nH]cn1)C(=O)N[C@@H](Cc1ccccc1)C(=O)N[C@@H](CCCN=C(N)N)C(=O)N(CCc1c[nH]c2ccccc12)CC(N)=O (Ac-HFR[Gly(N(CH2)2(3-indolyl))]-NH2)
4 |  | 880 | 1700 | 530 |  |  |  |  |  | CC(=O)N(CCc1cnc[nH]1)CC(=O)N[C@@H](Cc1ccccc1)C(=O)N[C@@H](CCCNC(=N)N)C(=O)N[C@@H](Cc1c[nH]c2ccccc12)C(N)=O (Ac-[Gly(N-CH2CH2-imidazol-4-yl)]FRW-NH2)
5 |  |  |  |  | 40 | 20 | inactive |  |  | CC(=O)N[C@@H](Cc1c[nH]cn1)C(=O)N(CC(=O)N[C@@H](CCCN=C(N)N)C(=O)N[C@@H](Cc1c[nH]c2ccccc12)C(N)=O)Cc1ccccc1
6 |  | 1100 | 170 | 160 |  |  |  | 9200 |  | CC(=O)N[C@@H](Cc1cnc[nH]1)C(=O)N[C@@H](Cc1ccccc1)C(=O)N(CCCNC(=N)N)CC(=O)N[C@@H](Cc1c[nH]c2ccccc12)C(N)=O (Ac-HF[Gly(N-(CH2)3-guanidino)]W-NH2)
7 | 60 |  |  |  |  |  |  |  |  | CC(=O)N(CCc1c[nH]cn1)CC(=O)N[C@@H](Cc1ccccc1)C(=O)N[C@@H](CCCN=C(N)N)C(=O)N[C@@H](Cc1c[nH]c2ccccc12)C(N)=O (Ac-[Gly(N-CH2CH2-imidazol-4-yl)]FRW-NH2)
8 |  |  | 48000 |  |  |  |  |  |  | CC(=O)N[C@@H](Cc1cnc[nH]1)C(=O)N(CC(=O)N[C@@H](CCCNC(=N)N)C(=O)N[C@@H](Cc1c[nH]c2ccccc12)C(N)=O)Cc1ccccc1
9 | 55 |  | 6600 | 5300 |  | 65 |  |  |  | CC(=O)N(CCc1c[nH]cn1)CC(=O)N(CC(=O)N(CCCN=C(N)N)CC(=O)N(CCc1c[nH]c2ccccc12)CC(N)=O)Cc1ccccc1 (Ac-[Gly(N-CH2CH2-imidazol-4-yl)][Nphe][Gly(N-(CH2)3-guanidino)][Gly(N(CH2)2(3-indolyl))]-NH2)
10 | 55 |  | 7600 | 20000 |  |  |  |  | inactive | CC(=O)N(CC(=O)N(CC(=O)N(CCCCN=C(N)N)CC(=O)N(CC(N)=O)Cc1cccc2ccccc12)Cc1ccccc1)Cc1ccccc1 (Ac-[Nphe][Nphe][NhArg][N(1-naphthylmethyl)Gly]-NH2)
